Consider 21 molecules from ChEMBL document CHEMBL1201862, “PubChem BioAssay data set” (2004).

For orientation: EC50 means the concentration needed to bring the measured effect to its halfway point. In general, AC50 refers to the midpoint of the concentration-response curve, whichever way the signal moves. One may read the IC50 as the midpoint of a concentration-inhibition curve.

Assay [1] addresses T1, Zinc finger protein mex-5 (Caenorhabditis elegans, UniProt Q9XUB2).
T1 sequence (Q9XUB2 whole entry): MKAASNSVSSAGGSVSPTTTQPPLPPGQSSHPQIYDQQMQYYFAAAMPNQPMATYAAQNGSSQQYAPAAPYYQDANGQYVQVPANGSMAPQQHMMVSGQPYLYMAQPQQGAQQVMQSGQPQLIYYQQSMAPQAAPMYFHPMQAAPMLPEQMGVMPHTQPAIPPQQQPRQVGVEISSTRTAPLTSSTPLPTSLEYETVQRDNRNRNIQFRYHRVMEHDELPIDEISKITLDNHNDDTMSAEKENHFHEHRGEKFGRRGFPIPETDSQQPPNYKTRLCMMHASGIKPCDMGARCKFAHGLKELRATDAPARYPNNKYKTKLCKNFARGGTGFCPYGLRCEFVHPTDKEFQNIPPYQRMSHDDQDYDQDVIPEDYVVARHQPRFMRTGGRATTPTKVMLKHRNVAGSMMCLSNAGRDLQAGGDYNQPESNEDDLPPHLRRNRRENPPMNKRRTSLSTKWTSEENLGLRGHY
Kind of assay: potency of MEX-5 RNA-binding blockers – biochemical, C. elegans, fluorescence polarization, dose response (AID 1960). Background: Polarisation of emitted light reports the rotation of a fluorescent probe.

Assay [2] addresses T2, Heat shock factor protein 1 (Mus musculus, UniProt P38532).
T2 sequence (P38532 whole entry): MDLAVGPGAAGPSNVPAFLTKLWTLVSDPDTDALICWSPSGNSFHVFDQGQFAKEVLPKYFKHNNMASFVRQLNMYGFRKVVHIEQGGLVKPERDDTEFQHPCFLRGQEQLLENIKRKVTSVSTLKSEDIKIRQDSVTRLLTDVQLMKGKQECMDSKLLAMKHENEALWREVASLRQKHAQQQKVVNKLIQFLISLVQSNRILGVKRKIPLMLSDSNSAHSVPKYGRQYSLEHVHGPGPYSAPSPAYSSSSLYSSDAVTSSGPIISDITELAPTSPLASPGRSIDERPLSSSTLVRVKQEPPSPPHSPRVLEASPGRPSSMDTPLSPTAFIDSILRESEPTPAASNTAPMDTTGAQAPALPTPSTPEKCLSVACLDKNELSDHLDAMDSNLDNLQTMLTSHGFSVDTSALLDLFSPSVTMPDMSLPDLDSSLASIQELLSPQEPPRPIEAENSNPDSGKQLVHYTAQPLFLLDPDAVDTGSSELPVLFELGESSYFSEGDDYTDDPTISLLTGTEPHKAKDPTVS
Kind of assay: enhancement of HSF1-driven luciferase signal – cell-based, NIH3T3, luminescence, dose retest, confirmation (AID 435004).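 Further: stress induced by proteasome inhibitor MG132 added 30 min after compound; luciferase reporter driven by HSF1 response element in NIH3T3 cells; actives raise luminescence as potentiators of the MG132 stress response.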 The assay is classed as functional.

Assay [3] has as its target Luciferin 4-monooxygenase (Photinus pyralis, UniProt P08659). The assay is described as follows: inhibition of purified Photinus pyralis luciferase – biochemical, luminescence, dose response (AID 1891).
The nature of assay [4]: Luminescence Cell-Based Dose Confirmation HTS to Identify Inhibitors of Platelet Dense Granule Release. [Related pubchem assays: 1663 (Primary HTS), 1678 (Summary of Project)]. The assay is classed as functional.
For assay [5], the target named is T3, Replicative DNA helicase DnaB (Mycobacterium tuberculosis, UniProt P9WMR3).
T3 sequence (P9WMR3 whole entry): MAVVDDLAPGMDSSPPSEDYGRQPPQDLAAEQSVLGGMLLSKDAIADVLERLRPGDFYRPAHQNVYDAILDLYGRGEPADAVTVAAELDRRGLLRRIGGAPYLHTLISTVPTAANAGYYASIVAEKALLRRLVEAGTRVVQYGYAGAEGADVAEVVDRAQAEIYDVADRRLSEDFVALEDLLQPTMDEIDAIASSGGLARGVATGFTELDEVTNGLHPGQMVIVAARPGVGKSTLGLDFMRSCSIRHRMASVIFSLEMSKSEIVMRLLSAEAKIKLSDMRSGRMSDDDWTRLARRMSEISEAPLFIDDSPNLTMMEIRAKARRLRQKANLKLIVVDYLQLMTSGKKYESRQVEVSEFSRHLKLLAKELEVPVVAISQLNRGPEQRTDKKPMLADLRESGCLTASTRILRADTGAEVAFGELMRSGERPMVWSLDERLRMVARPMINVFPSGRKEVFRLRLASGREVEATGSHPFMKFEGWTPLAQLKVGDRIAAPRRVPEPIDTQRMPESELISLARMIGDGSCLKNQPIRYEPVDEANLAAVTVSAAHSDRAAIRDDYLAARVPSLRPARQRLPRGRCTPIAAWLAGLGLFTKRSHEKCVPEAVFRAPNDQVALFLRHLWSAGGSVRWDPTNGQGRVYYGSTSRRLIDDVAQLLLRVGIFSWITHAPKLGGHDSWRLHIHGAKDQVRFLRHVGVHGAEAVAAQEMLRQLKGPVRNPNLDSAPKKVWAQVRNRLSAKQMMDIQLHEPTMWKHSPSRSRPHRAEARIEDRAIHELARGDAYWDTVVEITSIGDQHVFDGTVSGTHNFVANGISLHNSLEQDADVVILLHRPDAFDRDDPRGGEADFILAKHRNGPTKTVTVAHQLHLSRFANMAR
Kind of assay: DnaB intein splicing inhibitors, dose response, biochemical, cell-free fluorescence (AID 449749). The assay is classed as functional.

The target of a further assay is T4, Protein RecA (Mycobacterium tuberculosis, UniProt P9WHJ3).
T4 sequence (P9WHJ3 whole entry): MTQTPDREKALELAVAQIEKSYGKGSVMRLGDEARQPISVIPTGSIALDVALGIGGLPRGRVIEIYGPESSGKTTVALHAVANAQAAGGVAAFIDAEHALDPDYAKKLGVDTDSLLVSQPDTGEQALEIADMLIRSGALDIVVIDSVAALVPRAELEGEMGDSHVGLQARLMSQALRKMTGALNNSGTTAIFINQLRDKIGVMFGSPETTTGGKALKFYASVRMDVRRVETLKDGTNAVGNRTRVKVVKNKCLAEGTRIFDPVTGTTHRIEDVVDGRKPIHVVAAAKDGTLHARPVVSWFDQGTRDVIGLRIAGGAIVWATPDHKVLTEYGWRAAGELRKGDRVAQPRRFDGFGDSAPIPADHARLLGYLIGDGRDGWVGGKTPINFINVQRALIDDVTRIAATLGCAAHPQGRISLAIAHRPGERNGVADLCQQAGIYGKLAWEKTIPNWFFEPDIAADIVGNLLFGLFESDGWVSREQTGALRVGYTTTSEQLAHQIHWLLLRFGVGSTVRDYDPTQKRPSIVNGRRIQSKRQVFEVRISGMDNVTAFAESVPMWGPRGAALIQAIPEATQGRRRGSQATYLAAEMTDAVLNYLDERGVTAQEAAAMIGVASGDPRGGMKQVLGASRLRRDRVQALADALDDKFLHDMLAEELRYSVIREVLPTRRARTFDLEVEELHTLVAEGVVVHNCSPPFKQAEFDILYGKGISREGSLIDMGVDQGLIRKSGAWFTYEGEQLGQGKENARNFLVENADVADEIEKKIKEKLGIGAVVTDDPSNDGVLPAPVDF
Kind of assay: Fluorescence Cell-Free Homogeneous Dose Retest to Identify Inhibitors of RecA-Intein Splicing Activity. [Related pubchem assays (depositor defined):AID2097, AID2223, AID489010, AID492950]. The assay is classed as functional.

The target in assay [6] is T5, Calpain-2 catalytic subunit (Sus scrofa, UniProt P43367).
T5 sequence (P43367 whole entry): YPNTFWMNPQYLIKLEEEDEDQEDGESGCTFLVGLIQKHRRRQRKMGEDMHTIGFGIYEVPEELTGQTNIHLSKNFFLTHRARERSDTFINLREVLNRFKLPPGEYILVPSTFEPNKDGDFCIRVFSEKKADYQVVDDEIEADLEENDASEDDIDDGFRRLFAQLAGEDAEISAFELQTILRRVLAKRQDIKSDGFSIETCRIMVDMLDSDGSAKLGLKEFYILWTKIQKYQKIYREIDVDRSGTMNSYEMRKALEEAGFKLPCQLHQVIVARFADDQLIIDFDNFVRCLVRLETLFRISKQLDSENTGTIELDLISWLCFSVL
The assay is described as follows: m-calpain protease blockers, concentration series – biochemical, fluorogenic peptide substrate, dose response (AID 1420). The assay is classed as functional.

A short description of the next assay: cells. The assay is classed as functional.
Assay [7] in a line: P. falciparum Dd2 growth inhibitors, dose response, SYBR Green, cherry-picked samples (AID 1159567). The assay is classed as functional, cell-based.
Assay [8] can be described thus: NIH3T3 cell viability loss – ATP luminescence, mouse fibroblasts, counter-screen, dose response (AID 2010).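 Further: cells exposed to compound for about 90 hours before reading.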 The assay is classed as functional, cell-based. (In general: The purpose of a counterscreen is to sort out artefacts and off-target activity.)
The nature of assay [9]: Trypanosoma cruzi growth suppression in host cells – NIH3T3 host cells, beta-gal luminescence, confirmation (AID 2044).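 Further: intracellular parasites grown in NIH/3T3 mouse fibroblasts as host cells; luminescent beta-galactosidase reporter signal from transgenic T. cruzi replicating inside host cells; inhibitors lower the luminescence signal.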 The assay is classed as functional, cell-based.
A short description of assay [10]: HIV-1 AD8 envelope cell-cell fusion blockers – cherry-pick, dose response (AID 652062).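 Further: luciferase signal from cell-cell fusion driven by HIV-1 clade B AD8 Env; potency is for inhibitors of fusion seen as a drop in luminescence.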 The assay is classed as functional, cell-based.
For another assay, the target named is Cytochrome P450 2D6 (Homo sapiens, UniProt P10635).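 Further: CYP2D6 member of a cytochrome P450 panel assay.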
Cytochrome P450 2D6, sequence (P10635 whole entry): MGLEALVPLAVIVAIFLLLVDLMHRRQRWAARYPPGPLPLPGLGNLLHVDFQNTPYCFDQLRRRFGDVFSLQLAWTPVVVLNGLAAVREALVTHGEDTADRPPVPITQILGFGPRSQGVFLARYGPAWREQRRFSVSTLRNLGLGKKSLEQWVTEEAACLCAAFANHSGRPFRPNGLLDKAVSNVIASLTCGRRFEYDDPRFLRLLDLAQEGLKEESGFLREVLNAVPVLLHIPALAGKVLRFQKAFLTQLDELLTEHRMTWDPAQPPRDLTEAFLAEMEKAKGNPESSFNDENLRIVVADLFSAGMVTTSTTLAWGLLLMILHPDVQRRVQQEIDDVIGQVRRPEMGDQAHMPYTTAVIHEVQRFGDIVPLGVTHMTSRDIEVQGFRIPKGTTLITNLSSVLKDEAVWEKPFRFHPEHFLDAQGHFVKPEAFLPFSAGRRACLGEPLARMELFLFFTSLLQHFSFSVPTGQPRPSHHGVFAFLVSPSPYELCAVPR
For the next assay, the target named is Cytochrome P450 2C19 (Homo sapiens, UniProt P33261). The assay is described as follows: Cytochrome panel assay with activity outcomes. Panel member name: p450-cyp2c19 Compounds with AC50 equal or less than 10 uM are considered active. The assay is classed as functional. As to conditions: read-out: AC50.
Cytochrome P450 2C19, sequence (P33261 whole entry): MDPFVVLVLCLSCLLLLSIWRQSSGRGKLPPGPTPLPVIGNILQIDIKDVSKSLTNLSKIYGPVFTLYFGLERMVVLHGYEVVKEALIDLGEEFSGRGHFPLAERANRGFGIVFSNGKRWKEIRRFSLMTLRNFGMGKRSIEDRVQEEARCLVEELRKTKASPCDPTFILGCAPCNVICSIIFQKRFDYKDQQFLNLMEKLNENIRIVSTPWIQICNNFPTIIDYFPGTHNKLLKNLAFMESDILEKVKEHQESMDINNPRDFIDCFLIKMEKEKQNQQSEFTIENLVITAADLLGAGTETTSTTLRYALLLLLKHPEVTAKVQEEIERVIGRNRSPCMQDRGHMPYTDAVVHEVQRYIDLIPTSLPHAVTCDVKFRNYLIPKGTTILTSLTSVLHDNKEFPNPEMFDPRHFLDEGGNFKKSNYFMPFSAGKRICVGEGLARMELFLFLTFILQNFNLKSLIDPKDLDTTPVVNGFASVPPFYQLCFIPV
A short description of assay [11]: microbe, parasite or virus in culture. As to conditions: Mycobacterium tuberculosis. The assay is classed as functional.
A short description of assay [12]: Luminescence Cell-Based Dose Retest to Confirm Inhibitors of Cancer Stem Cells. [Related pubchem assays (depositor defined):AID2717, AID2721]. The assay is classed as functional. Particulars: Homo sapiens.
Assay [13] is described as follows: non-specific 3'UTR reporter inhibition in Clone20-Shn3RL – cell-based, Renilla luciferase, cherry-picked, counter-screen for Shn3 inhibitor project, dose response (AID 624133). The assay is classed as functional.
Assay [14] in a line: reduction of Shn3 3'UTR-driven luciferase in osteoblasts – cell-based, Clone20 osteoblasts, firefly luciferase, cherry-picked, dose response (AID 624132).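 Further: firefly luciferase luminescence from reporter carrying the Shn3 3'UTR in osteoblasts.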 The assay is classed as functional.

Activity calls are given as the source filed them.

Luciferin 4-monooxygenase, sequence (P08659 whole entry): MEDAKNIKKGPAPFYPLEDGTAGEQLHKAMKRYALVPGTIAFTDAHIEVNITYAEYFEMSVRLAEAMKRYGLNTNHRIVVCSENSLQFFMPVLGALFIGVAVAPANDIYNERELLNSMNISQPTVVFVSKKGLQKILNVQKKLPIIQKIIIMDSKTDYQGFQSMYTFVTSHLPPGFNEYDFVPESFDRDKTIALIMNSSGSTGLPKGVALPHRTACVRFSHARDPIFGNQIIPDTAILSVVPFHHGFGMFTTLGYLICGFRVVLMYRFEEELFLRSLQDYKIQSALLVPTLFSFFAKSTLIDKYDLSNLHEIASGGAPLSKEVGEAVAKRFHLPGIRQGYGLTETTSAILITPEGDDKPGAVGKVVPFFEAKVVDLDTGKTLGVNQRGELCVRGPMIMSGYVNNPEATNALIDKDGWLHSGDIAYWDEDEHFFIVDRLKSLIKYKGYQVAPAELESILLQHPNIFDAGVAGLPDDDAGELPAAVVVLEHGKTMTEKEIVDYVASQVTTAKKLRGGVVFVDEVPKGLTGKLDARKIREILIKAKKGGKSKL

Turning to `C=CCn1c(=O)/c(=C/c2ccc(C)o2)s/c1=C(/C#N)C(=O)c1ccccc1`, in [1], the EC50 was > 300 µM (inconclusive).
`COC(=O)c1sccc1NC(=O)Nc1cccc(F)c1`: the half-maximal effective concentration (EC50) in assay [2] was 237 µM (active); in assay [3], 0.93 µM (active); in assay [4], 4.6 µM (active).
For the molecule `CCC(c1nnnn1Cc1ccco1)N(Cc1cc2cc(OC)ccc2nc1O)C1CCCCC1` (configuration not stated), the EC50 in [2] is 10.7 µM (active); at Protein RecA, 40.2 µM (inconclusive). In addition, the AC50 in assay [5] was > 380 µM (inactive).
For `O=C(c1ccc(COc2ccc(Cl)cc2)cc1)N1CCCCC1`, the IC50 in assay [6] is on record as 10.4 µM (not active).
Turning to `O=C(NCc1cccnc1)c1ccccc1CCc1ccccc1`, the IC50 in [6] is reported as 18.8 µM (not active).
Regarding `Cc1ccc(CCC(=O)Nc2ccc(C)c(C)c2)o1`, the IC50 in the assay “cells” was 49.8 µM (active).
Consider `COc1ccc2c3c([nH]c2c1)[C@H](CO)N(Cc1nccs1)CC31CN(Cc2cccnc2)C1`, for which the AC50 in [7] was 10.7 µM (active).
In the case of `COc1ccc(COc2cccc(C=O)c2)cc1`, in “cells”, the IC50 was 30.9 µM (active).
On to `COc1ccc(CNc2oc(COc3ccc(Cl)cc3)nc2C#N)cc1`, for which the IC50 in assay [6] is listed as 4 µM (not active). In addition, the EC50 was > 60 µM (not active) in assay [8] and 1.36 µM (active) in assay [9].
As to `COc1ccc2c3c(n(C)c2c1)[C@H](CO)N(C(=O)Nc1ccc(F)cc1)CC31CN(Cc2cccnc2)C1`, the AC50 in assay [7] was 3.4 µM (active).
For `CCCCOc1ccc(S(=O)(=O)Nc2cccnc2)cc1`, the AC50 in assay [10] was 7.89 µM (active); at Cytochrome P450 2D6, 25.1 µM (inconclusive); at Cytochrome P450 2C19, 0.355 µM (inconclusive).
Turning to `COc1ccccc1/C=N/NC(=O)c1ccc(Br)cc1`, the IC50 in [6] was 45.9 µM (not active).
Regarding `O=C(C1CCC(=O)N1C1CCCCC1)N1CCC2(CC1)OCCO2` (configuration not stated), the IC50 in [6] is reported as 8.43 µM (not active).
For `CCCC/N=C(/C)c1c(O)oc2ccccc2c1=O`, in [6], the IC50 is on record as 19.7 µM (not active).
Regarding `Cc1ccc(/C=C/C(=O)N2CC(C)CC(C)C2)o1` (configuration not stated), the EC50 in assay [2] is 24.5 µM (active). Further, the CC50 in assay [11] was > 40 µM (active). Further, the AC50 in assay [12] is 22.8 µM (active).
On to `Cc1ccc2cc(CN(CC3CCCO3)C(=O)NC3CCCCC3)c(O)nc2c1C` (configuration not stated), for which the concentration at half-maximal activity (AC50) in [13] is 9.37 µM (active); in assay [14], 4.49 µM (active).
As for `COC(=O)c1c(NC(NC(C)=O)C(Cl)(Cl)Cl)sc2c1CCCC2` (configuration not stated), the IC50 in [6] is reported as > 50 µM (not active).
Consider `CCOC(=O)Cc1nc2cc(Cl)ccc2o1`, for which the IC50 in “cells” was 18.6 µM (active).
With `N#Cc1ccc(-c2ccc([C@@H]3[C@@H]4CN(Cc5cocn5)C[C@H]3N4)cc2)cc1`, in assay [7], the AC50 was 3.73 µM (active).
`Cc1ccccc1S(=O)(=O)N1C[C@@H]2N[C@H](C1)[C@@H]2c1ccc(-c2ccc(C#N)cc2)cc1`: the AC50 in assay [7] was 3.32 µM (active).
With `COc1ccc2c3c(n(C)c2c1)[C@H](CO)N(C(=O)c1cccc(F)c1)CC31CN(C(=O)c2cccc(F)c2)C1`, the AC50 in assay [7] is 9.32 µM (active).
